Where two headings read alike, the source gives them in different places.
What was measured:
[1] = Pharmacokinetic evaluation in mice; assay type: in vivo, male ICR mice
Method: The compounds were administered by intravenous injection at a dose of 2 mg/kg and oral gavage at a dose of 10 mg/kg (0.5% CMC-Na suspension). 15 male ICR mice were selected, and each mouse was subjected to blood collection at 3 discrete time points, with 3 mice per time point. The time points of sampling were as follows: before administration, and 5 min, 15 min, 30 min, 1 h, 3 h, 5 h, 8 h, 12 h and 24 h after administration. 80 μL of blood was collected from the orbits or hearts of the mice at each time point after administration. All whole blood samples were collected in tubes containing EDTAK2 and centrifuged (1500-1600 rmp/min) at 4° C. for 10 min to isolate plasma, which was then stored in a refrigerator at −90° C. to −60° C. for sample analysis. The compound concentration in the plasma was determined by liquid chromatography-tandem mass spectrometry, and the corresponding pharmacokinetic parameters were obtained according to a plasma concentration-time curve.

DHODH = DHODH (Homo sapiens, UniProt Q02127); assay: Assay against enzyme activity of DHODH (DCIP absorption at 600 nm); assay type: biochemical
Method: The enzyme activity of DHODH was assayed through a cascade reaction to determine its ability to catalyze the oxidation of a natural substrate DHO (dihydroorotic acid) to orotic acid while reducing coenzyme Q. The enzyme activity of DHODH was indirectly detected by assaying the ability of the coenzyme Q to reduce a chromogenic substrate DCIP. After the compound and an enzyme reaction mixture were incubated for 5 min, a reaction substrate DHO was added to start the reaction, and the enzyme activity was assayed by assaying the absorption at 600 nm to detect the DCIP exhaustion in a timed manner.

MV-4-11 cells = assay: Anti-proliferative activity on MV-4-11 cells (CellTiter-Lumi, 72 h); assay type: cell-based; conditions: read-out: Cell anti-proliferative activity IC50 MV-4-11
Method: (§1) MV-4-11 cells were seeded into a 384-well plate (Fisher 142762) at 3000 cells per well. The next day, serially diluted compounds were added, and 72 h after the addition, CellTiter-Lumi (Beyotime C0068XL) was added to measure the ATP content in the cells. The growth of the cells was evaluated, and IC50 of the compounds against cell growth was calculated.

THP-1 cells = assay: Anti-proliferative activity on THP-1 cells (CellTiter-Lumi, 72 h); assay type: cell-based; conditions: read-out: Cell anti-proliferative activity IC50 THP-1
Method: as §1, with “THP-1” for “MV-4-11”

[2] = male, ICR, mouse, plasma, iv, 2 mg/kg
[3] = male, ICR, mouse, plasma, po, 10 mg/kg (0.5% CMC-Na suspension)

DHODH, sequence (Q02127 whole entry): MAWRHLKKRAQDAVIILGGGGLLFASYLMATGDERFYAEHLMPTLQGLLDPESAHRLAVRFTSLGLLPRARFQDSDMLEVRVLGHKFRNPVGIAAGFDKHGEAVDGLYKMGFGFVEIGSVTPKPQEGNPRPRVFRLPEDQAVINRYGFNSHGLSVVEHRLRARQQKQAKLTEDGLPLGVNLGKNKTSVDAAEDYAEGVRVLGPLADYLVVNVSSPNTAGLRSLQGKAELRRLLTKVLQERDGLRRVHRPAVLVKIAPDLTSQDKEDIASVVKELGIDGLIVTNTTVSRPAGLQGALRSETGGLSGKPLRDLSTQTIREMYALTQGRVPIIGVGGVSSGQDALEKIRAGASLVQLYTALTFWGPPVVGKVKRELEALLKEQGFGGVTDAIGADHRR

| Molecule | IC50 (DHODH) [nM] | IC50 (MV-4-11 cells; Homo sapiens, MV4-11, 72 h) [nM] | IC50 (THP-1 cells; Homo sapiens) [nM] | also measured |
| --- | --- | --- | --- | --- |
| C[C@H](Oc1cc(-n2nc3n(c2=O)CCC2(CC2)C3)c(F)cc1C(=O)Nc1c(F)cccc1Cl)C(F)(F)F [Compound 1, (S)—N-(2-chloro-6-fluorophenyl)-5-fluoro-4-(3′-oxo-5′,6′-dihydro-3′H-spiro[cyclopropane-1,7-[1,2,4]triazolo[4,3-α]pyridin]-2′(8′H)-yl)-2-((1,1,1-trifluoropropan-2-yl)oxy)benzamide] | < 50 | 1.27 | 27.6 | AUC(0-t) [1, 2]: 2530 ng·h/mL; clearance [1, 2]: 13.2 mL/min/kg; half-life [1, 2]: 1.79 h; Vd ([1]; male, ICR, mouse, plasma, iv, 2 mg/kg, read-out: Vss): 1.66 L/kg; AUC(0-t) [1, 3]: 7780 ng·h/mL; Cmax [1, 3]: 2240 ng/mL; Tmax [1, 3]: 0.25 h; half-life [1, 3]: 2.07 h; oral bioavailability (in words) ([1]; po): good oral bioavailability; F ([1]; po 10 mg/kg vs iv 2 mg/kg): 61.7% |
| C[C@H](Oc1cc(-n2nc3n(c2=O)CCCC2(CC2)C3)c(F)cc1C(=O)Nc1c(F)cccc1Cl)C(F)(F)F [Compound 51] | < 50 | 5.45 | 47.6 | – |
| C[C@H](Oc1nc(-n2nc3n(c2=O)CCC2(CC2)C3)c(F)cc1C(=O)Nc1c(F)cccc1Cl)C(F)(F)F [Compound 54, (S)—N-(2-chloro-6-fluorophenyl)-5-fluoro-4-(3′-oxo-5′,6′-dihydro-3′H-spiro[cyclopropane-1,7-[1,2,4]triazolo[4,3-α]pyridin]-2′(8′H)-yl)-2-((1,1,1-trifluoropropan-2-yl)oxy)benzamide] | < 50 | 0.51 | 24.5 | – |
| COc1ncc(C)c(NC(=O)c2cc(F)c(-n3nc4n(c3=O)CCC3(CC3)C4)nc2O[C@@H](C)C(F)(F)F)c1Cl [Compound 57] | < 50 | 0.32 | – | – |
| BAY-2402234 [reference compound] | – | – | – | IC50 (MV-4-11 cells): 3.82 nM; IC50 (THP-1 cells): 35.6 nM |

More lines, main results first:

| IC50 (DHODH) [nM] | IC50 (MV-4-11 cells; Homo sapiens, MV4-11, 72 h) [nM] | IC50 (THP-1 cells; Homo sapiens) [nM] | Molecule | also measured |
| --- | --- | --- | --- | --- |
| < 50 | 0.75 | – | COc1ncc(C)c(NC(=O)c2cc(F)c(-n3nc4n(c3=O)CCC3(CC3)C4)nc2O[C@@H](C)C2CCCCC2)c1Cl [Compound 58] | – |
| < 50 | 2.05 | – | CCC[C@H](C)Oc1nc(-n2nc3n(c2=O)CCC2(CC2)C3)c(F)cc1C(=O)Nc1c(C)cnc(OC)c1Cl [Compound 59] | – |
